Measurements from ChEMBL document CHEMBL1130368, “Potent carboxylate inhibitors of stromelysin containing P2 piperazic acids and P1 biaryl moeities” (Bioorg Med Chem Lett, 1997).

Molecular target: Stromelysin-1 (Homo sapiens, UniProt P08254)
Assay: Inhibition of Matrix metalloprotease-3 by MCA peptide assay

Stromelysin-1, sequence (P08254 whole entry): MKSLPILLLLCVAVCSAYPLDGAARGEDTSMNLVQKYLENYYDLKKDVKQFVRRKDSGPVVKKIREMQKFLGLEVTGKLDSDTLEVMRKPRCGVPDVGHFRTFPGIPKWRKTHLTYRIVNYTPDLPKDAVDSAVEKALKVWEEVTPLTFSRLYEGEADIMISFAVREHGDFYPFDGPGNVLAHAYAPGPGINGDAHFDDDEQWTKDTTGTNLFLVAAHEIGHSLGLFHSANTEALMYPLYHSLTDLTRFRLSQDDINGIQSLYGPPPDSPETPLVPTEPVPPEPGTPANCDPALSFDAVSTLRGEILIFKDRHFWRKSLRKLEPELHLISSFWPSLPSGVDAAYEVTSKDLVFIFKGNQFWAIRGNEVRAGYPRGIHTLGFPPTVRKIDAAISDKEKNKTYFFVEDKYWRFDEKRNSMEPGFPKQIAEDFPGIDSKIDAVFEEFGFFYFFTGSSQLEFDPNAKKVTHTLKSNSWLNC

Molecule `CCCC[C@@H](C[C@@H](CCc1ccc(-c2ccccc2)cc1)C(=O)N[C@@H](Cc1ccc(OC)cc1)C(=O)NC)C(=O)O` has a Ki of 21 nM.

For `CNC(=O)[C@@H]1CCCNN1C(=O)[C@H](CC(C)C)[C@H](C)C(=O)NO`, the IC50 was 30 nM.

For `CNC(=O)[C@@H]1CCCNN1C(=O)[C@H](CCOc1ccc(C(C)C)cc1)N[C@H](C)C(=O)O`, the IC50 was > 200000 nM.

Molecule `CNC(=O)[C@@H]1CCCNN1C(=O)[C@H](CCOc1ccc(-c2ccccc2)cc1)N[C@H](C)C(=O)O` has a Ki of 77 nM.

`CCCCc1ccc(OCC[C@H](N[C@H](C)C(=O)O)C(=O)N2NCCC[C@H]2C(=O)NC)cc1` was tested, and the Ki was 550 nM.

`CCCC[C@@H](C[C@@H](CCc1ccc(-c2ccccc2)cc1)C(=O)N1NCCC[C@H]1C(=O)NC)C(=O)O` was tested, and the Ki was 42 nM.

`CNC(=O)[C@@H]1CCCNN1C(=O)[C@H](CCOc1ccc(Cc2ccccc2)cc1)N[C@H](C)C(=O)O` gave a Ki of 552 nM.

`CNC(=O)[C@H](Cc1ccc(OC)cc1)NC(=O)[C@H](CCc1ccccc1)C[C@H](C)C(=O)O` gave an IC50 of 55000 nM.

In the case of `CNC(=O)[C@@H]1CCCNN1C(=O)[C@H](CCOc1ccc(CC2CCCC2)cc1)N[C@H](C)C(=O)O`, the IC50 is reported as > 200000 nM.

Molecule `CNC(=O)[C@H](Cc1ccc(OC)cc1)NC(=O)[C@H](CCc1ccc(-c2ccccc2)cc1)C[C@H](C)C(=O)O` has an IC50 of 81 nM.
